According to the supplement of paper PMC10307832:

Key:
Test in all cases: relative viability (nuclei count vs DMSO), 5 days (fraction); higher = more cells survive
[1] = compound: COc1cccc2cc(-c3nc([C@H]4CC[C@H](C(=O)O)CC4)n4ncnc(N)c34)[nH]c12 [OSI-027] + COc1cc2c(Oc3ccc(NC(=O)C4(C(=O)Nc5ccc(F)cc5)CC4)cc3F)ccnc2cc1OCCCN1CCOCC1 [Foretinib] (partner 0.25 µM)
How it was run: (§1)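 Lung cancer cell lines in 1536-well plates were dosed by pin tool the day after seeding, either with one drug alone or with a fixed anchor-drug dose plus five library-drug doses (not always all listed) in √10 steps. After 5 days, cells were fixed and their nuclei stained in one step (final 0.05% Triton X-100, 1% formaldehyde, 1 ug/ml Hoechst), then counted on 4× images. Relative viability is the nuclei count in treated wells divided by that in vehicle wells. Values are medians of duplicate plates.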

[2] = compound: Cc1nc(NC(=O)N2CCC[C@H]2C(N)=O)sc1-c1ccnc(C(C)(C)C(F)(F)F)c1 [Alpelisib] + C[C@]1(O)C[C@@H](c2nc(-c3ccc4ccc(-c5ccccc5)nc4c3)c3c(N)nccn32)C1 [Linsitinib] (partner 1 µM)
How it was run: as §1

[3] = compound: Cc1nc(NC(=O)N2CCC[C@H]2C(N)=O)sc1-c1ccnc(C(C)(C)C(F)(F)F)c1 [Alpelisib] + CS(=O)(=O)CCNCc1ccc(-c2ccc3ncnc(Nc4ccc(OCc5cccc(F)c5)c(Cl)c4)c3c2)o1 [Lapatinib] (partner 2 µM)
How it was run: as §1

[4] = compound: COc1cccc2cc(-c3nc([C@H]4CC[C@H](C(=O)O)CC4)n4ncnc(N)c34)[nH]c12 [OSI-027] + Nc1nc2[nH]cc(CCc3ccc(C(=O)N[C@@H](CCC(=O)O)C(=O)O)cc3)c2c(=O)[nH]1 [Pemetrexed] (partner 0.2 µM)
How it was run: as §1

Row | Cell Line | relative viability ([1]; first compound 0.01 µM) | relative viability ([1]; first compound 0.03162 µM) | relative viability ([1]; first compound 0.1 µM) | relative viability ([1]; first compound 0.3162 µM) | relative viability ([1]; first compound 1 µM) | relative viability ([2]; first compound 0.04 µM) | relative viability ([2]; first compound 0.1265 µM) | relative viability ([2]; first compound 0.4 µM) | relative viability ([2]; first compound 1.265 µM) | relative viability ([2]; first compound 4 µM) | relative viability ([3]; first compound 0.04 µM) | relative viability ([3]; first compound 0.1265 µM) | relative viability ([3]; first compound 0.4 µM) | relative viability ([3]; first compound 1.265 µM) | relative viability ([3]; first compound 4 µM) | relative viability ([4]; first compound 0.01 µM) | relative viability ([4]; first compound 0.03162 µM) | relative viability ([4]; first compound 0.1 µM) | relative viability ([4]; first compound 0.3162 µM) | relative viability ([4]; first compound 1 µM)
1 | NCI-H838 | 1.04 | 0.827 | 0.901 | 0.568 | 0.416 | 0.969 | 1.02 | 0.983 | 0.807 | 0.956 | 0.877 | 1.03 | 1.01 | 0.774 | 0.696 | 0.245 | 0.255 | 0.249 | 0.234 | 0.214
2 | NCI-H1975 | 1 | 0.954 | 0.783 | 0.841 | 0.635 | 0.96 | 0.915 | 0.91 | 0.67 | 0.548 | 0.874 | 0.862 | 0.889 | 0.619 | 0.483 | 0.336 | 0.275 | 0.292 | 0.303 | 0.259
3 | A-427 | 0.952 | 1 | 0.89 | 0.707 | 0.423 | 1.11 | 1.14 | 1.22 | 1.01 | 1.09 | 1.03 | 0.914 | 0.967 | 0.926 | 1.04 | 0.575 | 0.966 | 0.783 | 0.737 | 0.616
4 | SK-LU-1 | 0.911 | 0.816 | 0.586 | 0.433 | 0.28 | 1.22 | 1.14 | 1.27 | 0.939 | 1.06 | 1.07 | 0.707 | 0.858 | 0.767 | 0.704 | 1.02 | 1.03 | 0.869 | 0.689 | 0.385
5 | PC-3 [JPC-3] | 1.02 | 0.976 | 0.963 | 0.98 | 0.454 | 0.948 | 0.974 | 1.03 | 0.883 | 0.933 | 0.438 | 0.555 | 0.404 | 0.424 | 0.394 | 0.464 | 1.1 | 0.775 | 0.84 | 0.785
6 | ChaGo-K-1 | 0.977 | 0.854 | 0.907 | 0.8 | 0.504 | – | – | – | – | – | – | – | – | – | – | 0.259 | 0.311 | 0.251 | 0.337 | 0.262
7 | NCI-H2023 | 0.964 | 0.925 | 0.785 | 0.765 | 0.461 | 0.612 | 0.634 | 0.628 | 0.574 | 0.444 | 0.717 | 0.617 | 0.312 | 0.58 | 0.495 | 0.254 | 0.242 | 0.201 | 0.173 | 0.121
8 | LXF-289 | 0.956 | 0.989 | 1.01 | 0.903 | 0.747 | 0.935 | 0.952 | 1.05 | 0.952 | 0.996 | 0.865 | 0.921 | 0.958 | 0.832 | 0.956 | 0.939 | 0.841 | 1.04 | 0.974 | 0.837
9 | EBC-1 | 0.112 | 0.104 | 0.1 | 0.116 | 0.124 | 0.81 | 0.822 | 1.02 | 0.825 | 0.793 | 0.21 | 0.184 | 0.211 | 0.238 | 0.232 | – | – | – | – | –
10 | Calu-6 | 0.989 | 0.936 | 0.837 | 0.784 | 0.593 | 0.906 | 0.978 | 1.03 | 0.806 | 0.912 | 1.1 | 1.09 | 1.12 | 0.996 | 0.952 | – | – | – | – | –
11 | SW 900 | – | 0.644 | 0.725 | 0.873 | 0.405 | – | – | – | – | – | – | – | – | – | – | 0.368 | 0.56 | 0.477 | 0.508 | 0.406
12 | NCI-H2170 | 1.1 | 0.962 | 0.981 | 0.965 | 0.667 | – | – | – | – | – | 0.269 | 0.273 | 0.239 | 0.248 | 0.269 | 0.26 | 0.263 | 0.289 | 0.325 | 0.305
13 | NCI-H1792 | – | – | – | – | – | 0.505 | 0.566 | 0.619 | 0.539 | 0.38 | 0.923 | 0.796 | 0.863 | 0.773 | 0.532 | 0.569 | 0.852 | 0.757 | 0.635 | 0.214
14 | NCI-H522 | – | – | – | – | – | – | – | – | – | – | – | – | – | – | – | 1.04 | 0.956 | 0.717 | 0.858 | 0.664
15 | NCI-H1623 | 0.876 | 0.767 | 0.671 | 0.595 | 0.391 | – | – | – | – | – | – | – | – | – | – | – | – | – | – | –
16 | ABC-1 | 1.13 | 0.996 | 0.904 | 0.652 | 0.567 | 0.716 | 0.695 | 0.86 | 0.847 | 0.709 | 0.943 | 0.988 | 1.17 | 0.706 | 0.717 | – | – | – | – | –
17 | NCI-H1648 | – | – | – | – | – | – | – | – | – | – | – | – | – | – | – | 0.849 | 0.825 | – | 0.656 | 0.701
18 | NCI-H1299 | 1.14 | 1.13 | 1.09 | 1.14 | 1.03 | 0.975 | 0.984 | 1.14 | 0.866 | 0.843 | 0.977 | 0.981 | 0.997 | 1.03 | 1.02 | – | – | – | – | –
19 | NCI-H1703 | 0.324 | 0.336 | 0.291 | 0.429 | 0.324 | 0.899 | 0.631 | 0.661 | 0.438 | 0.354 | 0.949 | 0.886 | 0.789 | 0.526 | 0.678 | – | – | – | – | –
20 | A549 | 1.14 | 1.04 | 1.01 | 0.84 | 0.465 | 0.647 | – | 0.577 | 0.5 | 0.445 | 0.915 | 0.857 | 0.866 | 0.637 | 0.53 | – | – | – | – | –
21 | HCC-44 | – | – | – | – | – | 0.707 | 0.7 | 0.738 | 0.582 | 0.543 | 1.12 | 1.02 | 1.05 | 0.877 | 0.893 | 0.668 | 0.649 | 0.708 | 0.658 | 0.669
22 | LCLC-103H | 0.693 | 0.658 | 0.786 | 0.666 | 0.334 | 1.07 | 1.19 | 1.25 | 0.892 | 0.76 | – | – | – | – | – | 0.481 | 0.47 | 0.481 | 0.446 | 0.52
